# Measured values taken from US20020016351A1, “New crystals of celecoxib” (priority 2000, published 2002).
# Experiments:
# [1] = bulk density of the crystals; assay type: physicochemical; settings: typical and characteristic density of the celecoxib crystals
# Description: (§1) One of the main disadvantages of the needle-like crystals of Form II mentioned in WO 00/32189 is their low bulk density. It was found, that the crystals of the invention's Form I are distinctly denser in comparison to the crystals of Form II prepared according to the methods as given in International Applications WO 95/15316 and WO 96/37476. The following densities are typical and characteristic for the crystals of Form I and II, respectively: […]
# [2] = tap density of the crystals; assay type: physicochemical; settings: typical and characteristic density of the celecoxib crystals
# Description: as §1
SMILES,bulk density [1],tap density [2]
"Cc1ccc(-c2cc(C(F)(F)F)nn2-c2ccc(S(N)(=O)=O)cc2)cc1 [Form I, 4-[5-(4-methylphenyl)-3-(trifluoromethyl)-1H-pyrazol-1-yl]benzenesulfonamide]",≧about 0.270 g/ml,≧about 0.360 g/ml
"Cc1ccc(-c2cc(C(F)(F)F)nn2-c2ccc(S(N)(=O)=O)cc2)cc1 [Form II, 4-[5-(4-methylphenyl)-3-(trifluoromethyl)-1H-pyrazol-1-yl]benzenesulfonamide]",about 0.130 g/ml,about 0.180 g/ml
